Laboratory results as given in patent US20230150995A1, “HETEROARYL-METHYL SUBSTITUTED TRIAZOLES” (Hoffmann-La Roche Inc., priority 2020, published 2023).

Target: T1, human V1a receptor (Homo sapiens, UniProt P37288)
T1 construct: expressed in transfected cells; host or cells: HEK293 cells, transiently transfected; cell membranes
Assay: human V1a receptor binding study (3H-Vasopressin SPA, HEK293 membranes)
Conditions: membranes of HEK293 cells transiently transfected with human V1a receptor, Ki by Cheng-Prusoff, read-out: pKi (hV1a) (converted)
Description: The human V1a receptor was cloned by RT-PCR from total human liver RNA. The coding sequence was subcloned in an expression vector after sequencing to confirm the identity of the amplified sequence. […] Cell membranes were prepared from HEK293 cells transiently transfected with the expression vector and grown in 20 liter fermenters with the following protocol.
50 g of cells are re-suspended in 30 ml freshly prepared ice cold Lysis buffer (50 mM HEPES, 1 mM EDTA, 10 mM MgCl2 adjusted to pH=7.4+complete cocktail of protease inhibitor (Roche Diagnostics)). Homogenized with Polytron for 1 min and sonicated on ice for 2× 2 minutes at 80% intensity (Vibracell sonicator). The preparation is centrifuged 20 min at 500 g at 4° C., the pellet is discarded and the supernatant centrifuged 1 hour at 43′000 g at 4° C. (19′000 rpm). The pellet is re-suspended in 12.5 ml Lysis buffer+12.5 ml Sucrose 20% and homogenized using a Polytron for 1-2 min. The protein concentration is determined by the Bradford method and aliquots are stored at −80° C. until use. For binding studies 60 mg Yttrium silicate SPA beads (Amersham) are mixed with an aliquot of membrane in binding buffer (50 mM Tris, 120 mM NaCl, 5 mM KCl, 2 mM CaCl2, 10 mM MgCl2) for 15 minutes with mixing. 50 μl of bead/membrane mixture is then added to each well of a 96 well plate, followed by 50 μl of 4 nM 3H-Vasopressin (American Radiolabeled Chemicals). For total binding measurement 100 μl of binding buffer are added to the respective wells, for non-specific binding 100 μl of […] cold vasopressin and for compound testing 100 μl of a serial dilution of each compound in 2% DMSO. The plate is incubated 1 h at room temperature, centrifuged […] at 1000 g and counted on a Packard Top-Count. Non-specific binding counts are subtracted from each well and data is normalized to the maximum specific binding set at 100%. To calculate an IC 50 the curve is fitted using a non-linear regression model (XLfit) and the Ki is calculated using the Cheng-Prussoff equation.

T1 sequence (P37288 whole entry): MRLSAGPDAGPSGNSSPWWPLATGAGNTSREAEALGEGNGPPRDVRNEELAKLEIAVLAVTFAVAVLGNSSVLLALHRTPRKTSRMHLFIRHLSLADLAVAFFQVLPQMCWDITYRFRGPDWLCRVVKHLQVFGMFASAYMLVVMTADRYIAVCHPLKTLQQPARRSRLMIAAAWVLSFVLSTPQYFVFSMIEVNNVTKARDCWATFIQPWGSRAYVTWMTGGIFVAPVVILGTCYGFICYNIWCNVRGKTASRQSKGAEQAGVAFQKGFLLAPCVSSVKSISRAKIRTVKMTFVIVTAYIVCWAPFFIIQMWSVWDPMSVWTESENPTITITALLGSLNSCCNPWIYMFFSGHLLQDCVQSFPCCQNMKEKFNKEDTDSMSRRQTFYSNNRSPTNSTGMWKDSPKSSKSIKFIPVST

Structure (SMILES) | Ki
Clc1ccc(-n2c(Cn3cccn3)nnc2[C@H]2CC[C@H](Oc3ccccn3)CC2)cc1 [Example 4, trans-2-[4-[4-(4-Chlorophenyl)-5-(pyrazol-1-ylmethyl)-1,2,4-triazol-3-yl]cyclohexyl]oxypyridine] | 0.347 nM
Clc1ccc(-n2c(Cn3ccnn3)nnc2[C@H]2CC[C@H](Oc3ccccn3)CC2)cc1 [Example 7, trans-2-[4-[4-(4-Chlorophenyl)-5-(triazol-1-ylmethyl)-1,2,4-triazol-3-yl]cyclohexyl]oxypyridine] | 3.63 nM
Clc1ccc(-n2c(Cc3ccno3)nnc2[C@H]2CC[C@H](Oc3ccccn3)CC2)cc1 [Example 3, trans-5-[[4-(4-Chlorophenyl)-5-(4-pyridin-2-yloxycyclohexyl)-1,2,4-triazol-3-yl]methyl]-1,2-oxazole] | 0.229 nM
Clc1ccc(-n2c(Cn3ccnc3)nnc2[C@H]2CC[C@H](Oc3ccccn3)CC2)cc1 [Example 8, trans-2-[4-[4-(4-Chlorophenyl)-5-(imidazol-1-ylmethyl)-1,2,4-triazol-3-yl]cyclohexyl]oxypyridine] | 3.63 nM
Clc1ccc(-n2c(Cn3nccn3)nnc2[C@H]2CC[C@H](Oc3ccccn3)CC2)cc1 [Example 5, trans-2-[4-[4-(4-Chlorophenyl)-5-(triazol-2-ylmethyl)-1,2,4-triazol-3-yl]cyclohexyl]oxypyridine] | 0.151 nM
Clc1ccc(-n2c(Cc3ccon3)nnc2[C@H]2CC[C@H](Oc3ccccn3)CC2)cc1 [Example 2, trans-3-[[4-(4-Chlorophenyl)-5-(4-pyridin-2-yloxycyclohexyl)-1,2,4-triazol-3-yl]methyl]-1,2-oxazole] | 0.229 nM
Clc1ccc(-n2c(Cn3nccn3)nnc2[C@H]2CC[C@@H](Oc3ccccn3)CC2)cc1 [Example 6, cis-2-[4-[4-(4-Chlorophenyl)-5-(triazol-2-ylmethyl)-1,2,4-triazol-3-yl]cyclohexyl]oxypyridine] | 0.871 nM
Cc1cc(Cc2nnc([C@H]3CC[C@H](Oc4ccccn4)CC3)n2-c2ccc(Cl)cc2)no1 [Example 1, trans-3-[[4-(4-Chlorophenyl)-5-(4-pyridin-2-yloxycyclohexyl)-1,2,4-triazol-3-yl]methyl]-5-methyl-1,2-oxazole] | 0.17 nM
Clc1ccc(-n2c(Cn3cncn3)nnc2[C@H]2CC[C@H](Oc3ccccn3)CC2)cc1 [Example 9, trans-2-[4-[4-(4-Chlorophenyl)-5-(1,2,4-triazol-1-ylmethyl)-1,2,4-triazol-3-yl]cyclohexyl]oxypyridine] | 7.94 nM
Clc1ccc(-n2c(Cn3cnnn3)nnc2[C@H]2CC[C@H](Oc3ccccn3)CC2)cc1 [Example 10, trans-2-[4-[4-(4-Chlorophenyl)-5-(tetrazol-1-ylmethyl)-1,2,4-triazol-3-yl]cyclohexyl]oxypyridine] | 9.12 nM
